Assay results reported in US10988455B2, “1,2,4-triazine-4-amine derivatives” (Heptares Therapeutics Limited, priority 2010, dated 2021).

Legend:
[1] = biological target: human adenosine A2a receptor (Homo sapiens (Human), UniProt P29274); assay: HEK293-hA2a [3H]-ZM241385 binding assay (Test A); conditions: HEK293 membranes, 1 nM [3H]ZM241385, 25° C., 1 h
Procedure: (§1) All test compounds were prepared as a stock solution of 10 mM in 100% DMSO.

[2] = biological target: human adenosine A1 receptor (Homo sapiens (Human), UniProt P30542); assay: CHO-hA1 [3H]DPCPX binding assay (Test A); conditions: CHO membranes, 1 nM [3H]DPCPX, 25° C., 1 h; for Ki: read-out: pKi A1 (converted)
Procedure: as §1

[3] = system: haloperidol-induced catalepsy in rats; assay: Catalepsy reversal test (Test B); assay type: in vivo, Sprague-Dawley rats; conditions: for reversal of cataleptic behavior in rats pre-treated with haloperidol: dose of 1 mg/kg p.o.
Procedure: The dopamine D2 receptor antagonist, haloperidol, induces Parkinsonism in humans and induces motor effects in rats such as catalepsy. There is considerable evidence that adenosine A2A receptor antagonists reverse haloperidol-induced motor effects in preclinical studies. […] The present study determines the ability of haloperidol-induced catalepsy in rats to be reversed by novel A2A receptor antagonists.
Haloperidol (0.82 mg/kg, i.p.; 150 min pre-test time) induces significant cataleptic behaviour in rats (average score 3.1). The effect of selected compounds of the invention (2-10 mg/kg or 0.3-3 mg/kg, p.o.; 120 min pre-test time) on catalepsy was established by administration of said compounds to rats pre-treated with haloperidol as described above.
Details of a similar test may be found in, for example, Hodgson et al., J. Pharmacol. Exp. Ther. 330, 2009.

Sequence of human adenosine A2a receptor (P29274 whole entry): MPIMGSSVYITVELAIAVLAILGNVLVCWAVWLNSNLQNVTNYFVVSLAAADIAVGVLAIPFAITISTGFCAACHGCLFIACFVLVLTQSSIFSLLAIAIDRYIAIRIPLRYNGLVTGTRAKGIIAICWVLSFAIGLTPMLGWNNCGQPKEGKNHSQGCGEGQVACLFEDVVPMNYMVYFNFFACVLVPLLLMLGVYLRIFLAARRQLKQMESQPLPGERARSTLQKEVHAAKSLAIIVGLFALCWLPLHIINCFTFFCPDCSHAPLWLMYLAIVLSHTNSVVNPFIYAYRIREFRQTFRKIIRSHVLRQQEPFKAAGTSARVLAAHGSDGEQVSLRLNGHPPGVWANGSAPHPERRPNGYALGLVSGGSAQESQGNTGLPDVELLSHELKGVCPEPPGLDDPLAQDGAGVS
Sequence of human adenosine A1 receptor (P30542 whole entry): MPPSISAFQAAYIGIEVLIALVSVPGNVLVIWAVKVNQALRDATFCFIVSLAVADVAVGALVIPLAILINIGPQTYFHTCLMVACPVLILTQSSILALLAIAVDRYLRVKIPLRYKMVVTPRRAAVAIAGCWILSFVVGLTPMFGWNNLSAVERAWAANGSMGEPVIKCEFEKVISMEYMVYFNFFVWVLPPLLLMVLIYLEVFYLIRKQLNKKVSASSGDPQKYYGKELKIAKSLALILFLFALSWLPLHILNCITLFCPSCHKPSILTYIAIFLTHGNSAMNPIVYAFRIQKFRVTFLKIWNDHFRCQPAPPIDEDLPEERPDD

Row | SMILES | pKi A2a [1] | pKi A1 [2] | further results
1 | Nc1nnc(-c2ccc(F)c(Cl)c2)c(-c2ccccc2)n1 [1(xv), 6-(3-Chloro-4-fluorophenyl)-5-phenyl-1,2,4-triazin-3-amine] | 7.11 | 8.45 | –
2 | Nc1nnc(-c2ccc3occc3c2)c(-c2ccccc2)n1 [1(xxxv), 6-(1-benzofuran-5-yl)-5-phenyl-1,2,4-triazin-3-amine] | 7.19 | 8.20 | –
3 | CC1CCCN(c2nnc(N)nc2-c2ccccc2)C1 (stereo not drawn) [2(iii), 6-(3-Methylpiperidin-1-yl)-5-phenyl-1,2,4-triazin-3-amine] | 7.31 | 5.37 | –
4 | Nc1nnc(-c2ccnc(C3CC3)c2)c(-c2ccccc2)n1 [1(lxxix)] | 7.45 | 9.35 | –
5 | Cc1cc(-c2nnc(N)nc2-c2ccccc2)cc(C(F)F)n1 [1(clxxix)] | 8.62 | 7.52 | reversal of cataleptic behavior in rats pre-treated with haloperidol ([3]; 120 min pre-test time): statistically significant
6 | COc1cc(OC)cc(-c2nnc(N)nc2-c2ccccc2)c1 [1(xxiv), 6-(3,5-Dimethoxyphenyl)-5-phenyl-1,2,4-triazin-3-amine] | 6.97 | 8.03 | –
7 | Nc1nnc(-c2cc(Cl)nc(CF)c2)c(-c2ccccc2)n1 [1(clxxxi)] | 8.71 | 7.17 | –
8 | CC1CN(c2nnc(N)nc2-c2ccccc2)CC(C)O1 (stereo not drawn) [2(iv), 6-(2,6-Dimethylmorpholin-4-yl)-5-phenyl-1,2,4-triazin-3-amine] | 7.79 | – | Ki [2]: > 10000 nM
9 | Cc1cc(-c2nnc(N)nc2-c2cc(F)cc(F)c2)cc(C)n1 [1(cliv)] | – | 6.77 | reversal of cataleptic behavior in rats pre-treated with haloperidol ([3]; 120 min pre-test time): statistically significant
10 | Cc1cc(-c2nnc(N)nc2-c2ccccc2)cc(C(F)(F)F)n1 [Example 1(ccix), 6-[2-methyl-6-(trifluoromethyl)pyridin-4-yl]-5-phenyl-1,2,4-triazin-3-amine] | – | 7.60 | reversal of cataleptic behavior in rats pre-treated with haloperidol ([3]; 120 min pre-test time): statistically significant
11 | Nc1nnc(-c2cc(Cl)cc(C3CC3)c2)c(-c2ccccc2)n1 [4(ii), 6-(3-Chloro-5-cyclopropylphenyl)-5-phenyl-1,2,4-triazin-3-amine] | – | – | Ki ([1]; read-out: pKi A2a (converted)): 12.9 nM; Ki [2]: 37.2 nM
12 | Nc1nnc(N2CCOC(CO)C2)c(-c2ccccc2)n1 (stereo not drawn) [2(xxv)] | 5.53 | 7.49 | –
13 | Nc1nnc(-c2ccnc(Cl)c2)c(-c2ccccc2)n1 [1(xliii)] | 7.74 | 8.54 | ED50, reversal of cataleptic behaviour in rats pre-treated with haloperidol ([3]; p.o., 120 min pre-test time, haloperidol 0.82 mg/kg i.p.): 0.27 mg/kg
14 | CC1(C)CCCN(c2nnc(N)nc2-c2ccccc2)C1 [2(vi), 6-(3,3-Dimethylpiperidin-1-yl)-5-phenyl-1,2,4-triazin-3-amine] | 7.39 | – | Ki [2]: > 10000 nM
15 | Nc1nnc(-c2cccc(Cl)c2)c(-c2ccccc2)n1 [Example 1(vi), 6-(3-Chlorophenyl)-5-phenyl-1,2,4-triazin-3-amine] | – | – | ED50 ([3]; Rattus norvegicus, p.o., 120 min pre-test time, haloperidol 0.82 mg/kg i.p., read-out: ED50, reversal of cataleptic behaviour in rats pre-treated with haloperidol): 9.8 mg/kg
16 | Cc1cc(-c2nnc(N)nc2-c2ccccc2F)cc(Cl)n1 [1(clxxvi)] | 8.03 | 6.93 | –
17 | Nc1nnc(-c2cc(Cl)cc(Cl)c2)c(-c2ccccn2)n1 [1(cciv)] | 7.21 | 5.97 | –
18 | Nc1nnc(-c2ccc3cc[nH]c3c2)c(-c2ccccc2)n1 [1(xviii), 6-(1H-Indol-6-yl)-5-phenyl-1,2,4-triazin-3-amine] | 6.75 | 6.91 | –
19 | Nc1nnc(-c2cccc(C(F)(F)F)c2)c(-c2ccccc2)n1 [1(ix), 5-Phenyl-6-[3-(trifluoromethyl)phenyl]-1,2,4-triazin-3-amine] | – | 7.81 | –
20 | Cc1cc(Cl)cc(-c2nnc(N)nc2-c2ccccc2)c1 [1(li)] | 8.66 | 6.87 | reversal of cataleptic behavior in rats pre-treated with haloperidol ([3]; 120 min pre-test time): statistically significant
21 | Nc1nnc(-c2cc(Cl)cc(Cl)c2)c(-c2ccccc2)n1 [1(xiii), 6-(3,5-Dichlorophenyl)-5-phenyl-1,2,4-triazin-3-amine] | – | – | reversal of cataleptic behavior in rats pre-treated with haloperidol ([3]; 120 min pre-test time): statistically significant
22 | Cc1cc(-c2nnc(N)nc2-c2ccccc2)cc(N2CCC2)n1 [5(x), 6-[2-(Azetidin-1-yl)-6-methylpyridin-4-yl]-5-phenyl-1,2,4-triazin-3-amine] | 8.52 | 8.05 | reversal of cataleptic behavior in rats pre-treated with haloperidol ([3]; 120 min pre-test time): statistically significant
23 | Cc1cc(-c2nnc(N)nc2-c2ccccc2)cc(C)[n+]1[O-] [1(ccxiii)] | 7.51 | 7.12 | –
24 | Nc1nnc(Oc2ccccc2)c(-c2ccccc2)n1 [3(i), 6-Phenoxy-5-phenyl-1,2,4-triazin-3-amine] | 7.17 | – | Ki [2]: > 10000 nM

Row | SMILES | pKi A2a [1] | pKi A1 [2] | further results
25 | Cc1cc(-c2nnc(N)nc2-c2ccc(Cl)cc2)cc(C)n1 [1(clix)] | 7.81 | 7.07 | reversal of cataleptic behavior in rats pre-treated with haloperidol ([3]; 120 min pre-test time): statistically significant
26 | Nc1nnc(-n2ccc(=O)cc2)c(-c2ccccc2)n1 [3(xvi)] | 7.41 | 7.15 | –
27 | Nc1nnc(-c2cc(Cl)cc(C(F)(F)F)c2)c(-c2ncccn2)n1 [1(ccxviii)] | 6.58 | 5.25 | –
28 | Cc1cc(-c2nnc(N)nc2-c2ccc(F)cc2)cc(N2CCC2)n1 [5(xi), 6-[2-(azetidin-1-yl)-6-methylpyridin-4-yl]-5-(4-fluorophenyl)-1,2,4-triazin-3-amine] | 7.76 | 6.90 | –
29 | Cc1cn(-c2nnc(N)nc2-c2ccccc2)cc(C)c1=O [5(ix), 1-(3-Amino-5-phenyl-1,2,4-triazin-6-yl)-3,5-dimethylpyridin-4(1H)-one] | 7.77 | 7.62 | –
30 | [2H]C([2H])([2H])c1cc(-c2nnc(N)nc2-c2ccccc2)cc(C)n1 [5(viii), 6-(2-Methyl-6-d3-methylpyridin-4-yl)-5-phenyl-1,2,4-triazin-3-amine] | – | 7.26 | –
31 | CC(=O)Nc1cc(-c2nnc(N)nc2-c2ccccc2)ccc1O [5(vii), N-[5-(3-Amino-5-phenyl-1,2,4-triazin-6-yl)-2-hydroxyphenyl]acetamide] | 6.73 | 8.69 | –
32 | Cc1cc(-c2nnc(N)nc2-c2ccccc2)cc(C)c1O [1(xli)] | – | 7.83 | –
33 | Cc1cc(-c2nnc(N)nc2-c2ccc(F)cc2)cc(Cl)n1 [Example 1(xcv), 6-(2-chloro-6-methylpyridin-4-yl)-5-(4-fluorophenyl)-1,2,4-triazin-3-amine] | – | – | reversal of cataleptic behavior in rats pre-treated with haloperidol ([3]; 120 min pre-test time): statistically significant
34 | CC1(C)C=C(c2nnc(N)nc2-c2ccccc2)CC(C)(C)O1 [1(lxxx)] | 6.61 | 6.01 | –
35 | Nc1nnc(-c2ccc3ccccc3c2)c(-c2ccccc2)n1 [1(lxxii)] | 6.99 | 8.52 | –
36 | Cc1cc(-c2nnc(N)nc2-c2cccc(F)c2)cc(Cl)n1 [1(xc)] | 8.07 | 7.26 | reversal of cataleptic behavior in rats pre-treated with haloperidol ([3]; 120 min pre-test time): statistically significant
37 | Nc1nnc(-c2cc(Cl)nc(C(F)(F)F)c2)c(-c2ccc(F)cc2)n1 [1(clxix)] | 8.40 | 6.99 | reversal of cataleptic behavior in rats pre-treated with haloperidol ([3]; 120 min pre-test time): statistically significant
38 | Cn1nc(C(F)(F)F)cc1Oc1nnc(N)nc1-c1ccccc1 [3(xxiv)] | 7.39 | 8.46 | –
39 | Cc1ncccc1Oc1nnc(N)nc1-c1ccccc1 [3(xxi)] | 6.22 | 8.07 | –
40 | Cc1cc(-c2nnc(N)nc2-c2ccccc2)cc(Br)n1 [1(ccxii)] | 8.66 | 7.68 | reversal of cataleptic behavior in rats pre-treated with haloperidol ([3]; 120 min pre-test time): statistically significant
41 | Nc1nnc(-c2cc(Cl)nc(C(F)F)c2)c(-c2ccccc2)n1 [1(clxxx)] | 8.90 | 7.76 | –
42 | O=C(CCCN1CCC(O)(c2ccc(Cl)cc2)CC1)c1ccc(F)cc1 [Haloperidol, haloperidol, reference compound] | – | – | catalepsy average score (maximum score of 4) ([3]; haloperidol 0.82 mg/kg i.p., 150 min pre-test time): 3.1
43 | Cc1csc(Nc2nnc(N)nc2-c2ccccc2)n1 [2(xxii)] | 5.07 | 6.71 | –
44 | CN(C)c1cc(-c2nnc(N)nc2-c2ccccc2)ccn1 [1(ccxi)] | 7.71 | 8.74 | –
45 | Cc1cc(-c2nnc(N)nc2-c2ccc(F)cc2)cc(C(F)(F)F)n1 [1(cxciii)] | – | 6.93 | reversal of cataleptic behavior in rats pre-treated with haloperidol ([3]; 120 min pre-test time): statistically significant
46 | Nc1nnc(Oc2cccc(C(F)(F)F)c2)c(-c2ccccc2)n1 [3(v), 5-Phenyl-6-[3-(trifluoromethyl)phenoxy]-1,2,4-triazin-3-amine] | 5.96 | – | –
47 | Nc1nnc(-c2cnn(Cc3ccccc3)c2)c(-c2ccccc2)n1 [1(cxxxiv)] | 5.62 | 7.62 | –
48 | Cc1ccc(Sc2nnc(N)nc2-c2ccccc2)cc1 [3(xxxii)] | 5.82 | 7.00 | –
